Assays:
SF-268 (CNS) = assay: In vitro one dose primary anticancer assay; format: cell-based, human; conditions: one dose at 10^−4 molar concentration
Method: (§1) Biological Activity: In vitro biological activity studies were carried out at National Cancer Institute (USA).

MCF7 (Breast) = assay: In vitro one dose primary anticancer assay; format: cell-based, human; conditions: one dose at 10^−4 molar concentration
Method: as §1

NCI-H460 (Lung) = assay: In vitro one dose primary anticancer assay; format: cell-based, human; conditions: one dose at 10^−4 molar concentration
Method: as §1

breast cancer cell lines = assay: NCI in vitro cytotoxicity, SRB assay, average per cancer type; format: cell-based; conditions: Homo sapiens; average of six to eight different cancer cell lines; read-out: Log GI50 (inhibitory concentration), breast (converted)
Method: as §1
(§2) Cytotoxicity: Compounds IXa and IXc were evaluated for in vitro against sixty human tumour cells derived from nine cancer types (leukemia, non-small-cell lung, colon, CNS, melanoma, ovarian, prostate, and breast cancer). For each compound, dose response curves against each cell line were measured at a minimum of five concentrations at 10 fold dilutions. A protocol of 48 h continuous drug exposure was used and a sulforhodamine B (SRB) protein assay was used to estimate cell viability or growth. The concentration causing 50% cell growth inhibition (GI50), total cell growth inhibition (TGI, 0% growth) and 50% cell death (LC50, −50% growth) compared with the control was calculated.
(§3) Each cancer type represent the average of six to eight different cancer cell lines.

CNS cancer cell lines = assay: as above; format: cell-based; conditions: Homo sapiens; average of six to eight different cancer cell lines; read-out: Log GI50 (inhibitory concentration), CNS (converted)
Method: as §1, §2, §3

[1] = test system: melanoma cancer cell lines; assay: as above; format: cell-based; conditions: Homo sapiens; average of six to eight different cancer cell lines; read-out: Log GI50 (inhibitory concentration), melanoma (converted)
Method: as §1, §2, §3

[2] = test system: non-small-cell lung cancer cell lines; assay: as above; format: cell-based; conditions: Homo sapiens; average of six to eight different cancer cell lines; read-out: Log GI50 (inhibitory concentration), non-small-cell lung (converted)
Method: as §1, §2, §3

[3] = test system: prostate cancer cell lines; assay: as above; format: cell-based; conditions: Homo sapiens; average of six to eight different cancer cell lines; read-out: Log GI50 (inhibitory concentration), prostate (converted)
Method: as §1, §2, §3

renal cancer cell lines = assay: as above; format: cell-based; conditions: Homo sapiens; average of six to eight different cancer cell lines; read-out: Log GI50 (inhibitory concentration), renal (converted)
Method: as §1, §2, §3

[4] = test system: ovarian cancer cell lines; assay: as above; format: cell-based; conditions: Homo sapiens; average of six to eight different cancer cell lines; read-out: Log GI50 (inhibitory concentration), ovarian (converted)
Method: as §1, §2, §3

colon cancer cell lines = assay: as above; format: cell-based; conditions: Homo sapiens; average of six to eight different cancer cell lines; read-out: Log GI50 (inhibitory concentration), colon (converted)
Method: as §1, §2, §3

[5] = test system: leukemia cancer cell lines; assay: as above; format: cell-based; conditions: Homo sapiens; average of six to eight different cancer cell lines; read-out: Log GI50 (inhibitory concentration), leukemia (converted)
Method: as §1, §2, §3

[6] = test system: sixty human tumour cells derived from nine cancer types; assay: NCI in vitro cytotoxicity screen, sixty human tumour cell lines, SRB assay, 48 h (mean graph midpoints); format: cell-based; conditions: 48 h continuous drug exposure, mean over human tumour cell lines; for Log10LC5O mean graph midpoint (MG_MID): 50% cell death (−50% growth); for GI50: 50% cell growth inhibition, read-out: Log10 GI50 mean graph midpoint (MG_MID) (converted); for Log10 TGI mean graph midpoint (MG_MID): total cell growth inhibition (0% growth)
Method: as §1, §2

Row | SMILES | Growth percentages (CNS) SF-268 (SF-268 (CNS)) [%] | Growth percentages (Breast) MCF7 (MCF7 (Breast)) [%] | Growth percentages (Lung) NCI-H460 (NCI-H460 (Lung)) [%] | GI50 (breast cancer cell lines) [nM] | GI50 (CNS cancer cell lines) [nM] | GI50 [1] [nM] | GI50 [2] [nM] | GI50 [3] [nM] | GI50 (renal cancer cell lines) [nM] | GI50 [4] [nM] | GI50 (colon cancer cell lines) [nM] | GI50 [5] [nM] | Log10LC5O mean graph midpoint (MG_MID) [6] | GI50 [6] [nM] | Log10 TGI mean graph midpoint (MG_MID) [6]
1 | COc1cc2c(cc1OCCCOc1cc3c(cc1OC)C(=O)N1C[C@@H](F)C[C@H]1C=N3)N=C[C@@H]1C[C@H](F)CN1C2=O [IXa] | 0 | 0 | 0 | 3240 | 2860 | 3240 | 5520 | 6610 | 4840 | 4900 | 5190 | 2150 | −4.31 | 6170 | −4.75
2 | COc1cc2c(cc1OCCCCCOc1cc3c(cc1OC)C(=O)N1C[C@@H](F)C[C@H]1C=N3)N=C[C@@H]1C[C@H](F)CN1C2=O [IXc] | 0 | 0 | 0 | 58.3 | 23.7 | 50 | 48.1 | 37.2 | 32.2 | 240 | 86.3 | 16.1 | −4.87 | 72.4 | −6.27

Reference: patent US7189710B2, “C2-fluoro pyrrolo [2,1−c][1,4]benzodiazepine dimers” (Council of Scientific and Industrial Research, priority 2004, dated 2007)
